In a melting point compilation (Tetko et al.; mined from patent text by program, amines drawn as free bases though some values may be those of a salt):

Compound | melting point [°C]
COc1ccc(CN(C)C2CCN(c3ccc([N+](=O)[O-])cc3)CC2)cc1 | 144 to 145
CC(Cl)=CCOc1ccc(C(=O)O)nc1 | 96 to 98
CC(=O)Nc1ccc2c(c1)nc(/C=C/c1ccccc1)n2-c1ccccn1 | 105 to 107
O=[N+]([O-])c1cc2c(cc1C=Cc1ccccn1)OCO2 | 167 to 170
COC(=O)c1sc(Nc2ccc(Cl)cc2)nc1C | 172 to 173
CC(=O)C1=NN(c2ccc(C(=O)O)cc2C)C(=O)C1 | > 250
Oc1c(-c2nnn[nH]2)cnc2c(Br)cccc12 | > 260
COC(=O)Oc1ccc(C=Nc2ccc(C#N)cc2)cc1 | 139
NCCNCC(O)COc1ccccc1C(N)=O (stereo not given) | 91 to 93
CCCCCS(=O)(=O)NC(=O)OCc1ccc(OS(=O)(=O)CCC)cc1Oc1ncc(C(F)(F)F)cc1Cl | 86 to 89
Cc1ccc(NS(=O)(=O)c2cccc(C#N)c2)c2[nH]cc(C#N)c12 | 220 to 221
CCOC(=O)C1=CC(=O)CC(c2ccc(Cl)c(OC)c2F)N1 (stereo not given) | 116 to 118
NC(=O)c1[nH]c2ccc(Cl)cc2c1S(=O)(=O)c1ccccc1 | 253 to 254
C=C1C(O)C(CO)OC1n1ccc(NC(=O)c2ccccc2)nc1=O (stereo not given) | > 300
COCC(O)Cn1c2ccc(OC)cc2c2c3c(c(-c4ccccc4)cc21)C(=O)NC3=O (stereo not given) | 128 to 136
COC(=O)C(=C1SCCCN1C(=O)C(Cl)Cl)[N+](=O)[O-] | 122
CC[C@H]1c2cc(F)ccc2-c2ccccc2N1C(=O)c1ccc(O)cc1 | 103 to 104
OCCOc1ccc(-n2cncn2)cc1 | 151 to 152
CCCc1c(OCCCOc2ccc(C(=O)CO)c(OC)c2CCC)ccc2c1OC(C(=O)OC)CC2 (stereo not given) | 87 to 88
Cc1nc2cc(NC(=O)c3cc4cc(F)ccc4n3Cc3cccc(F)c3)cnc2s1 | 264 to 265

Compound | melting point [°C]
O=C1c2c(O)cccc2C(O)(c2cccs2)c2cccc(O)c21 | 191 to 192
Cc1ccccc1-c1nc2c3ccccc3ccn2c1N=Cc1ccc2ccccc2c1Br | 250 to 252
COc1cc(Nc2nc3cccc(-c4ccc(S(=O)(=O)N5CCOCC5)cc4)c3o2)cc(OC)c1OC | 201 to 203
NC(=O)N1CCCC2=C1CCc1cc(Cl)ccc12 | 169 to 171
Cn1cc(C2=C(c3c4n(c5ccccc35)CCC3(CCCC3NC(=O)OC(C)(C)C)C4)C(=O)OC2=O)c2ccccc21 (stereo not given) | 123 to 125
CC1CN2C(=NC1=O)CCC2C (stereo not given) | 150 to 152
CCCCc1ccc(N2C(=O)CN(Cc3ccccc3)C2=S)cc1 | 149 to 151
N#Cc1ccc(-c2ccc(C(=O)O)nc2)cc1 | > 260
Cc1nc(NC(=O)c2cccc(OC(F)(F)F)c2)sc1C(=O)NCc1ccccc1 | 230 to 232
COC(=O)[C@@H]1NC(=O)[C@@H]1NC(=O)COc1ccccc1 (relative stereo) | 140 to 141
N#Cc1cccc(Oc2ccccc2N)c1C#N | 132
O=C(CCc1ccccc1)N[C@H](Cc1ccc(C(F)(F)F)cc1)[C@@H](O)c1cccc(Oc2ccccc2)c1 (racemic) | 134 to 135
CC(=O)C(=Cc1cc(O)c(O)c(C(F)(F)F)c1)C(C)=O | 198 to 205
COc1ccc(Cl)c2nc(SCc3ccccc3)nn12 | 90 to 91
COc1ccc2ccccc2c1CCl | 122 to 123
O=C1CCC(c2ccc3c(c2)CC(NC(=O)Nc2ccccc2)C3)=NN1 (stereo not given) | 249 to 251
CNC(=O)c1ccccc1-c1nc(-c2ccccc2)no1 | 145 to 146
O=C(Nc1ccc(Oc2ccnc(N3CCC4(CC3)OCCO4)n2)c2ccccc12)c1cc(F)cc(N2CCCCC2)c1 | 195 to 196
COc1cc(OC)nc(Sc2cccc(Cl)c2C(=O)O)n1 | 148 to 151
CSC1C(=O)Nc2c(C(=O)c3ccc(Cl)cc3)cccc21 (stereo not given) | 186 to 188

Compound | melting point [°C]
CC(C)Nc1cccnc1N1CCN(C(=O)c2ccc(C(=O)Nc3nncs3)cn2)CC1 | 260 to 262
C=CS(=O)(=O)c1ccc(C(=O)O)cc1 | 228
CNC1=NN(c2cccc(C(F)(F)F)c2)CC1 | 93.1
CCOc1cc(CCl)ccc1OCc1nc(-c2ccccc2)oc1C | 138 to 139
CCOC(=O)C=Cc1ccc(F)cc1F | 40 to 40.5
Cc1cn(C(C)C(=O)N(C)C)nc1-c1ccccc1Cl (stereo not given) | 98.5 to 100
NNC(=O)Nc1nc2ccccc2[nH]1 | 320 to 322
CN1Cc2cncn2-c2cccc(Br)c2C1=O | 196 to 197
O=C(Nc1ccc(C2=NOC(c3cc(Cl)cc(Cl)c3)(C(F)(F)F)C2)cc1)C(F)(F)F (stereo not given) | 45 to 52
NC(=NCC(F)(F)F)Nc1ccnc(CCCCc2nc(O)n[nH]2)n1 | 209 to 210
O=[N+]([O-])c1cc(Oc2ccccc2)ccc1OCc1ccccc1 | 84 to 87
Cc1cc(Oc2cccc(C(F)(F)F)c2)nn1C(=O)Nc1cccc([N+](=O)[O-])c1 | 83 to 86
CS(=O)(=O)c1ccc(C2=C(c3cccc(F)c3)C(=O)OC23CC3)cc1 | 130 to 131
CC(C)(C)c1noc(-c2cccc(Cl)n2)n1 | 103 to 104
Cc1ccccc1CC1CCN(C(=O)C(=O)Nc2ccc3c(c2)CC(=O)N3)CC1 | 211 to 213
CCN1c2ncc(CCc3cncnc3)cc2C(=O)N(C)c2cccnc21 | 142 to 143
O=C(NCCCCCC(=O)c1ncco1)c1cc2ccccc2[nH]1 | 176 to 179
COc1ccc(Cn2c(=O)c3c(c4ccccc42)OC(C)(C)[C@@H](O)[C@@H]3NC(=O)CCCCl)cc1 (relative stereo) | 218 to 219
Cc1nc2ccc(CN(CCO)c3ccc(C(=O)NCc4cccc(C#N)c4)cc3)cc2c(=O)[nH]1 | 110 to 112
O=C1CCC2(CC1)OC(c1ccccc1)c1ccccc12 (stereo not given) | 143 to 145

The next lines start with the values.

melting point [°C] | Compound
100 to 101 | O=C(NCCCC(c1cc(F)ccc1F)S(=O)(=O)c1ccc(Cl)cc1)OCCI (stereo not given)
206 to 209 | CS(=O)(=O)c1ccc(-c2[nH]c(Br)c(Cl)c2-c2ccc(F)cc2)cc1
53 to 54 | Cc1ccc(S(=O)(=O)OC[C@H]2COCCO2)cc1
190 to 191 | Cc1ccc(S(=O)(=O)OCC2COc3ccc4c(=O)ccoc4c3O2)cc1 (stereo not given)
266 to 267 | CCn1c(=O)c2[nH]c(/C=C/c3cccc(OC(F)(F)F)c3)nc2n(CC)c1=O
220 to 222 | COc1cccc(COc2ccc3c(c2)C=C(C(=O)O)CCS3(=O)=O)c1
159 to 160 | CC(C)(C)COc1ccc(NC(=O)c2cnn(CC(F)(F)F)c2)cc1C#N
222 | O=C(O)c1nccnc1C(=O)Nc1ccc(Cl)cn1
100 to 105 | Nc1ncnc2sc(Cc3ccccc3)c(-c3ccc(NS(=O)(=O)c4ccccc4)cc3)c12
98.5 to 101 | NS(=O)(=O)OCCOS(N)(=O)=O
122 to 125 | COc1cc(Br)c(OC)c(/C=C/C(=O)/C=C/c2cc(OC)cc(Br)c2OC)c1
184 to 186 | CC(=O)N1c2ccccc2CC1c1ccccc1NC(=O)C(C)(C)C (stereo not given)
263 | CCCC(CCNC(=O)C(C#N)=Cc1ccc(O)c(O)c1)NC(=O)C(C#N)=Cc1ccc(O)c(O)c1 (stereo not given)
138 to 139 | CCOC(=O)c1cnc2n(c1=O)C(C)CCC2=NNc1ccccc1 (stereo not given)
283 to 285 | O=C1CC(N2Cc3ccc(F)cc3NC2=O)C(=O)N1 (stereo not given)
98 to 99 | CCS(=O)c1nnc2n1C=Cc1ccccc1C2 (stereo not given)
52 to 54 | CCNC(=O)n1nc(Oc2ncc(C(F)(F)F)cc2Cl)cc1C(F)(F)F
130 to 140 | CN(N=Cc1c[nH]c2ccccc12)c1cc(N2CCOCC2)nc(OCCc2ccccn2)n1
151 to 153 | N#Cc1ccc(Cc2nc[nH]n2)cc1
78 to 79 | COC(=O)c1cc(C(F)(F)F)cc(OCc2ccccc2)c1OCc1ccccc1

melting point [°C] | Compound
259 to 260 | O=c1[nH]c(-c2c(F)cccc2F)nn1-c1ccccc1C(F)(F)F
132 to 133 | CCOC(=O)C1=C(CSSc2ccccc2)NC(C)=C(C(=O)OC)C1c1cccc([N+](=O)[O-])c1 (stereo not given)
79 to 82 | CC(=O)NC(C)C(=O)NCC(=O)O (racemic)
53 to 54 | CCCCCCCCCCCCCCCCCCOc1ccc(O)c(C(=O)OC)c1
290 to 293 | COc1nc2ncccc2c2nc(S(=O)(=O)Nc3c(Cl)cccc3Cl)nn12
78 to 81 | COc1ccc(S(=O)(=O)[C@H](CCCCc2ccccc2)[C@@H](CCS(=O)(=O)c2ccccc2)C(=O)NO)cc1OC
154 to 157 | Cc1cc([N+](=O)[O-])c(O)c2c1CCC2=O
208 to 210 | COc1ccc(-c2ccnc3[nH]c4ccccc4c23)cc1
160 to 162 | COc1ccc(C2CC(=O)C(=C3SC4NCCNC4S3)C(=O)C2)cc1 (stereo not given)
170 | Cc1nc(N)sc1S(=O)(=O)NC(C)(CO)CO
138 to 144 | O=c1c(Br)c(OCc2ccccc2)ccn1Cc1ccc(OCc2ccccc2)cc1
94 to 95 | Fc1ccc(CSc2nnc(-c3ccc4c(c3)CCO4)o2)cc1C(F)(F)F
149 | CC(C)Cn1c(=O)n(C)c(=O)c2c(SCCCC(=O)O)n(Cc3cccc4ccccc34)nc21
126 to 128 | COc1cc(Oc2cccc(C(F)(F)F)c2)nc(C(=S)Nc2ccccc2)c1
175 | O=C(NCC(O)(Cn1cncn1)c1ccc(Cl)cc1Cl)c1cccnc1 (stereo not given)
61 to 64 | COC(=O)c1sc(C(=O)OC)c(OC)c1C
205 to 207 | Nc1ccc2c(ccn2C(=O)c2ccc(F)cc2)c1
244 to 245 | O=C(Cc1ccccc1Cl)N[C@H]1C[C@H](C(=O)O)Nc2cc(Cl)cc(Cl)c21 (relative stereo)
174 to 175 | Cn1cc(-c2cccc(C(F)(F)F)c2)c(=O)c(C2CCCCC2)c1
161 | CC(C)(O)c1ccc(-c2ccc(C(C)(C)O)cc2)cc1
